Patent US9771378B2 (Denali Therapeutics, Inc., priority 2014, dated 2017)

Tested on: Aβ42 (human neuroglioma H4 cells expressing human wild type APP751)
Assay: In vitro cell screening assay with sandwich ELISA quantification of Aβ42 peptide
Type: cell-based
Settings: H4 cells stably expressing human wild type APP751; Pro293 chemically defined medium; compounds 0.003-10 μM; incubated overnight (16-18 h); supernatant Aβ42 by sandwich ELISA; normalized to DMSO and DAPT; read-out: Aβ42 H4 Prot Fre IC50
Procedure, shortened: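 H4 neuroglioma cells stably expressing human wild-type APP751 were treated in Pro293 medium with compounds (0.003-10 μM, 0.33% DMSO) for 16-18 h at 37° C. Secreted Aβ42 measured by sandwich ELISA (C-terminal capture, 4G8-HRP detection, TMB, 450 nm). IC50 by variable-slope sigmoidal regression on percent of DMSO control.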

Structure (SMILES) | IC50 [nM]
COc1ccc(Cl)c(C2COc3cnc(Nc4ccc(-n5cnc(C)c5)c(OC)c4)nc3N2C)c1 (single isomer, unassigned; (-)) [Example 167B] | 75
COc1cc(Nc2ncc3c(n2)N(C)C(C(F)(F)F)CO3)cnc1-n1cnc(C)c1 (single isomer, unassigned; (-)) [Example 193B] | 35
COc1cc(Nc2ncc3c(n2)N(C)[C@@H](c2ccccc2)CO3)ccc1-c1ccnc(C)c1 [Example 21B, (S)—N-(3-methoxy-4-(2-methylpyridin-4-yl)phenyl)-8-methyl-7-phenyl-7,8-dihydro-6H-pyrimido[5,4-b][1,4]oxazin-2-amine] | 40
Cc1cn(-c2ccc(Nc3ncc4c(n3)N(C)C(c3cc(C(F)(F)F)ccc3Cl)CO4)cc2F)cn1 (single isomer, unassigned; (-)) [Example 173B] | 831
Cc1cn(-c2ccc(Nc3ncc4c(n3)N(C)C(c3cc(C(F)(F)F)ccc3Cl)CO4)cc2F)cn1 (single isomer, unassigned; (+)) [Example 173A] | 72
COc1cc(Nc2ncc3c(n2)N(C)C(CC(F)(F)F)CO3)cnc1-n1cnc(C)c1 (single isomer, unassigned; (-)) [Example 238A] | 648
COc1cc(Nc2ncc3c(n2)N(C)C(c2ccccc2C)CO3)ccc1-c1ccnc(C)c1 (racemic) [Example 35] | 87
COc1cc(Nc2ncc3c(n2)N(C)[C@@H](CC2CC2)CO3)ccc1-n1cnc(C)c1 [Example 217] | 53
Cc1cc(-c2ccc(Nc3ncc4c(n3)N(C)C(c3ccccc3C)CO4)cc2F)ccn1 (single isomer, unassigned; (-)) [Example 32A] | 888
COc1cc(Nc2ncc3c(n2)N(C)C(C2COC2)CO3)cnc1-n1cnc(C)c1 (single isomer, unassigned; (+)) [Example 243A] | 601
COc1cc(Nc2ncc3c(n2)N(C)C(C(F)(F)F)CO3)ccc1-n1cnc(Cl)c1 (single isomer, unassigned; (+)) [Example 228A] | 331
CN1c2nc(Nc3ccc(C#N)cc3)ncc2OCC1C(F)(F)F (single isomer, unassigned; (+)) [Example 226A, (+)-4-((8-methyl-7-(trifluoromethyl)-7,8-dihydro-6H-pyrimido [5,4-b] [1, 4]oxazin-2-yl)amino) benzonitrile] | > 3000
COc1cc(Nc2ncc3c(n2)N(C)C2(COC2)CO3)cnc1-n1cnc(C)c1 [Example 272] | 537
COc1cc(Nc2ncc3c(n2)N(C)C(c2cc(F)cc(F)c2)CO3)cnc1-n1cnc(C#N)c1 (single isomer, unassigned; (+)) [Example 211A, (+)-1-(5-((7-(3,5-difluorophenyl)-8-methyl-7,8-dihydro-6H-pyrimido [5,4-b] [1, 4]oxazin-2-yl)amino)-3-methoxypyridin-2-yl)-1H-imidazole-4-carbonitrile] | 179
COc1cc(Nc2ncc3c(n2)N(C)C(c2ccc(C(F)(F)F)cc2C(F)(F)F)CO3)ccc1-n1cnc(C)c1 (single isomer, unassigned; (+)) [Example 168B] | 76
COc1cc(Nc2ncc3c(n2)N2CC(F)(F)C[C@H]2CO3)cnc1-n1cnc(C)c1 [Example 298, (S)-8,8-difluoro-N-(5-methoxy-6-(4-methyl-1H-imidazol-1-yl)pyridin-3-yl)-6a, 7,8,9-tetrahydro-6H-pyrimido [5,4-b] pyrrolo [1,2-d] [1, 4] oxazin-2-amine] | 177
Cc1cn(-c2ccc(Nc3ncc4c(n3)N(C)C(c3cc(Cl)ccc3C(F)(F)F)CO4)cc2F)cn1 (single isomer, unassigned; (+)) [Example 100A] | 101
Cc1cc(-c2ccc(Nc3ncc4c(n3)N(C)C(c3ccc(F)cc3F)CO4)cc2F)ccn1 (single isomer, unassigned; (+)) [Example 66A] | 488
COc1cc(Nc2ncc3c(n2)N(C)C(c2ccc(F)cc2)CO3)ccc1-c1ccnc(C)c1 (single isomer, unassigned; (+)) [Example 61B] | 58
COc1cc(Nc2ncc3c(n2)N2C(=O)CCC2CO3)cnc1-n1cnc(C)c1 (single isomer, unassigned; (+)) [Example 302A, (+)-2-((5-methoxy-6-(4-methyl-1H-imidazol-1-yl)pyridin-3-yl)amino)-6,6a, 7,8-tetrahydro-9H-pyrimido [5,4-b] pyrrolo [1,2-d] [1, 4] oxazin-9-one] | > 3000
COc1cc(Nc2ncc3c(n2)N(C)C(c2ccc(Cl)cc2C(F)(F)F)CO3)ccc1-c1ccnc(C)c1 (single isomer, unassigned; (-)) [Example 107A] | 422
COc1cc(Nc2ncc3c(n2)N(C)[C@@H](COc2ccccc2)CO3)ccc1-n1cnc(C)c1 [Example 200] | 30
Cc1cn(-c2ccc(Nc3ncc4c(n3)N(C)[C@@H](CO)CO4)cc2F)cn1 [Example 170, (S)-(2-((3-fluoro-4-(4-methyl-1H-imidazol-1-yl)phenyl)amino)-8-methyl-7,8-dihydro-6H-pyrimido [5,4-b] [1, 4]oxazin-7-yl) methanol] | 1240
COc1cc(Nc2ncc3c(n2)N(C)C(c2ccc(F)cc2C(F)(F)F)CO3)ccc1-n1cnc(C)c1 (single isomer, unassigned; (-)) [Example 94A] | 78

Structure (SMILES) | IC50 [nM]
Cc1cn(-c2ccc(Nc3ncc4c(n3)N(C)C(c3cc(F)cc(F)c3)CO4)nc2C#N)cn1 (single isomer, unassigned; (+)) [Example 192B, (+)-6-((7-(3,5-difluorophenyl)-8-methyl-7,8-dihydro-6H-pyrimido [5,4-b] [1, 4]oxazin-2-yl)amino)-3-(4-methyl-1H-imidazol-1-yl) picolinonitrile] | 576
COc1ccc(C)c(C2COc3cnc(Nc4cnc(-n5cnc(C)c5)c(OC)c4)nc3N2C)c1 (single isomer, unassigned; (-)) [Example 207B] | 96
Cc1cc(-c2ccc(Nc3ncc4c(n3)N(C)C(c3ccccc3)CO4)cc2F)ccn1 (single isomer, unassigned; (-)) [Example 27B] | 2100
COc1cc(Nc2ncc3c(n2)N(C)C2(CCCC2)CO3)ccc1-c1cnn(C)c1 [Example 264] | 260
COC[C@H]1COc2cnc(Nc3ccc(-n4cnc(C)c4)c(OC)c3)nc2N1C [Example 111] | 120
COc1cc(Nc2ncc3c(n2)N(C)C2(CCCC2)CO3)cnc1-c1cnn(C)c1 [Example 266] | > 3000
COc1cc(Nc2ncc3c(n2)N(C)C(c2ccccc2Cl)CO3)ccc1-c1ccnc(C)c1 (single isomer, unassigned; (-)) [Example 85A] | 292
COc1ccc(C)c(C2COc3cnc(Nc4cnc(-n5cnc(C)c5)c(OC)c4)nc3N2C)c1 (single isomer, unassigned; (+)) [Example 207A] | 10
COc1cc(Nc2ncc3c(n2)N(C)C2(CC2)CO3)cnc1-n1cnc(C)c1 [Example 260] | 213
Cc1cn(-c2ccc(Nc3ncc4c(n3)N(C)C(c3cc(Cl)ccc3C(F)(F)F)CO4)cc2F)cn1 (single isomer, unassigned; (-)) [Example 100B] | 588
COc1cc(Nc2ncc3c(n2)N2CCC(F)(F)C2CO3)cnc1-n1cnc(C)c1 (single isomer, unassigned; (-)) [Example 305B, (−)-7,7-difluoro-N-(5-methoxy-6-(4-methyl-1H-imidazol-1-yl)pyridin-3-yl)-6a, 7,8,9-tetrahydro-6H-pyrimido [5,4-b] pyrrolo [1,2-d] [1, 4] oxazin-2-amine] | 582
Cc1cn(-c2ccc(Nc3ncc4c(n3)N(C)C(C)CO4)cc2C(F)F)cn1 (single isomer, unassigned; (+)) [Example 214A] | > 3000
COc1cc(Nc2ncc3c(n2)N2C(=O)CCC2CO3)cnc1-n1cnc(C)c1 (single isomer, unassigned; (-)) [Example 302B, (−)-2-((5-methoxy-6-(4-methyl-1H-imidazol-1-yl)pyridin-3-yl)amino)-6,6a, 7,8-tetrahydro-9H-pyrimido [5,4-b] pyrrolo [1,2-d] [1, 4] oxazin-9-one] | 2900
Cc1cn(-c2ccc(Nc3ncc4c(n3)N(C)C(c3cc(F)cc(F)c3)CO4)cc2OC(F)(F)F)cn1 (single isomer, unassigned; (+)) [Example 223B] | > 3000
Cc1cn(-c2ccc(Nc3ncc4c(n3)N(C)C(c3ccccc3Cl)CO4)cc2F)cn1 (single isomer, unassigned; (-)) [Example 67B] | 643
Cc1cn(-c2ccc(Nc3ncc4c(n3)N(C)C3(CCCC3)CO4)nc2)cn1 [Example 263] | > 3000
COc1cc(Nc2ncc3c(n2)N(C)C(C2CCC(F)(F)CC2)CO3)cnc1-c1cnn(C)c1 (single isomer, unassigned; (-)) [Example 231B] | > 3000
COc1cc(Nc2ncc3c(n2)N(C)C(c2cc(F)cc(F)c2)CO3)ccc1-c1ccnc(C)c1 (single isomer, unassigned; (-)) [Example 42B] | 801
COc1cc(Nc2ncc3c(n2)N(C)C(C2CCC(F)(F)CC2)CO3)ccc1-n1cnc(C)c1 (single isomer, unassigned; (+)) [Example 216B] | 33
COc1cc(Nc2ncc3c(n2)N(C)C(c2ccccc2Cl)CO3)ccc1-c1ccnc(C)c1 (single isomer, unassigned; (+)) [Example 85B] | 130
Cc1cn(-c2ccc(Nc3ncc4c(n3)N(C)C(c3ccccc3C)CO4)cc2F)cn1 (single isomer, unassigned; (+)) [Example 34A] | 20
Cc1cn(-c2ccc(Nc3ncc4c(n3)N(C)C(c3cc(F)cc(F)c3)CO4)cc2C(F)F)cn1 (single isomer, unassigned; (-)) [Example 222B] | > 3000
COc1cc(Nc2ncc3c(n2)N(C)C(c2ccc(F)cc2C)CO3)ccc1-n1cnc(C)c1 (racemic) [Example 54] | 75
